Data taken from PubChem BioAssay AID1745844 (Carcinogenic Potency Database (CPDB), 2022).
Where “and” joins values, the source holds several entries; their conditions need not be identical. Equal values may be shown once. Calls of active or inactive are those of the source. How the calls were made is not given here.

Test system: rodent lifetime carcinogenesis bioassay, tumor incidence TD50
Assay: carcinogenic potency in animals, long-term in vivo studies, CPDB compilation (AID 1745844)
Conditions: rat

ClC=C(Cl)Cl
TD50 (strain Han:WIST, males, inhaled, site: kidney, lesion: tubular-cell adenoma, dosed 78 weeks, study length 156 weeks): 10700 mg/kg/day (inactive) | carcinogen call (strain Han:WIST, males, inhaled, site: liver, lesion: hepatocellular adenoma, dosed 78 weeks, study length 156 weeks): negative (inactive) | TD50 (strain Marshall, females, by gavage, site: any site (literature study), lesion: several types, types named in the paper, dosed 103 weeks, study length 104 weeks): 709 mg/kg/day | TD50 (strain Marshall, females, by gavage, site: kidney, lesion: tubular-cell adenocarcinoma, dosed 103 weeks, study length 104 weeks): 4110 mg/kg/day | TD50 (strain Marshall, females, by gavage, site: kidney, lesion: tubular-cell adenoma + tubular-cell adenocarcinoma, dosed 103 weeks, study length 104 weeks): 4370 mg/kg/day | TD50 (strain Marshall, males, by gavage, site: any site (literature study), lesion: several types, types named in the paper, dosed 103 weeks, study length 104 weeks): 199 mg/kg/day | TD50 (strain Marshall, males, by gavage, site: kidney, lesion: tubular-cell adenocarcinoma, dosed 103 weeks, study length 104 weeks): 8000 mg/kg/day | TD50 (strain Marshall, males, by gavage, site: kidney, lesion: tubular-cell adenoma + tubular-cell adenocarcinoma, dosed 103 weeks, study length 104 weeks): 5710 mg/kg/day | TD50 (strain Marshall, males, by gavage, site: testis, lesion: interstitial-cell tumor + interstitial-cell tumor, malignant, dosed 103 weeks, study length 104 weeks): 153 mg/kg/day | TD50 (strain Marshall, males, by gavage, site: testis, lesion: interstitial-cell tumor, malignant, dosed 103 weeks, study length 104 weeks): 6540 mg/kg/day | TD50 (strain Osborne-Mendel, females, by gavage, site: adrenal gland, lesion: cortical adenoma, dosed 103 weeks, study length 104 weeks): 556 mg/kg/day | TD50 (strain Osborne-Mendel, females, by gavage, site: any site (literature study), lesion: several types, types named in the paper, dosed 78 weeks, study length 110 weeks): 5620 mg/kg/day (inactive) | TD50 (strain Osborne-Mendel, females, by gavage, site: any site (literature study), lesion: several types, types named in the paper, dosed 103 weeks, study length 104 weeks): 372 mg/kg/day | TD50 (strain Osborne-Mendel, females, by gavage, site: kidney, lesion: tubular-cell adenoma, dosed 103 weeks, study length 104 weeks): 10700 mg/kg/day | TD50 (strain Osborne-Mendel, females, by gavage, site: liver, lesion: hepatocellular adenoma + hepatocellular carcinoma + neoplastic nodule, dosed 103 weeks, study length 104 weeks): 3500 mg/kg/day | TD50 (strain Osborne-Mendel, males, by gavage, site: any site (literature study), lesion: several types, types named in the paper, dosed 78 weeks, study length 110 weeks): 16000 mg/kg/day | TD50 (strain Osborne-Mendel, males, by gavage, site: any site (literature study), lesion: several types, types named in the paper, dosed 103 weeks, study length 104 weeks): 1490 mg/kg/day | TD50 (strain Osborne-Mendel, males, by gavage, site: kidney, lesion: tubular-cell adenocarcinoma, dosed 78 weeks, study length 110 weeks): 7220 mg/kg/day | TD50 (strain Osborne-Mendel, males, by gavage, site: kidney, lesion: tubular-cell adenoma + tubular-cell adenocarcinoma, dosed 103 weeks, study length 104 weeks): 628 mg/kg/day | TD50 (strain Osborne-Mendel, males, by gavage, site: kidney, lesion: tubular-cell adenoma, dosed 103 weeks, study length 104 weeks): 628 mg/kg/day | TD50 (strain Osborne-Mendel, males, by gavage, site: liver, lesion: hepatocellular adenoma + hepatocellular carcinoma + neoplastic nodule, dosed 103 weeks, study length 104 weeks): 8950 mg/kg/day | TD50 (strain Sprague-Dawley, females, inhaled, site: any site (literature study), lesion: several types, types named in the paper, dosed 104 weeks, study length 159 weeks): 3890 mg/kg/day | TD50 (strain Sprague-Dawley, females, inhaled, site: kidney, lesion: several types, types named in the paper, dosed 104 weeks, study length 159 weeks): 41300 mg/kg/day | TD50 (strain Sprague-Dawley, females, inhaled, site: kidney, lesion: tubular-cell adenocarcinoma, dosed 104 weeks, study length 159 weeks): 43200 mg/kg/day | TD50 (strain Sprague-Dawley, females, inhaled, site: liver, lesion: angiosarcoma, dosed 104 weeks, study length 159 weeks): 8010 mg/kg/day | TD50 (strain Sprague-Dawley, females, inhaled, site: liver, lesion: neoplastic nodule, dosed 104 weeks, study length 159 weeks): 9680 mg/kg/day | TD50 (strain Sprague-Dawley, males, by gavage, site: all sites, lesion: leukemia, dosed 52 weeks, study length 140 weeks): 428 mg/kg/day | TD50 (strain Sprague-Dawley, males, by gavage, site: any site (literature study), lesion: malignant tumor, dosed 52 weeks, study length 140 weeks): 818 mg/kg/day | TD50 (strain Sprague-Dawley, males, inhaled, site: all sites, lesion: leukemia, dosed 104 weeks, study length 159 weeks): 5930 mg/kg/day and 2810 mg/kg/day | TD50 (strain Sprague-Dawley, males, inhaled, site: kidney, lesion: tubular-cell adenocarcinoma, dosed 104 weeks, study length 159 weeks): 9490 mg/kg/day and 12400 mg/kg/day | TD50 (strain Sprague-Dawley, males, inhaled, site: kidney, lesion: tubular-cell adenoma, dosed 104 weeks, study length 159 weeks): 29200 mg/kg/day | TD50 (strain Sprague-Dawley, males, inhaled, site: liver, lesion: neoplastic nodule, dosed 104 weeks, study length 159 weeks): 30700 mg/kg/day | TD50 (strain Sprague-Dawley, males, inhaled, site: mammary gland, lesion: one or several types, types not named, dosed 104 weeks, study length 159 weeks): 120 mg/kg/day | TD50 (strain Sprague-Dawley, males, inhaled, site: testis, lesion: Leydig-cell tumor, dosed 104 weeks, study length 159 weeks): 557 mg/kg/day and 835 mg/kg/day
